Patent US9126984B2, “4-(indol-3-yl)-pyrazole derivatives, pharmaceutical compositions and methods for use” (ITEOS THERAPEUTICS, priority 2013, dated 2015)

Assays:
[1] = biological target: T1, murine mastocytoma P815 cells overexpressing hTDO2 (Homo sapiens, UniProt P48775); assay: Cellular assay for TDO2 activity determination; type: cell-based; settings: P815 cells overexpressing hTDO2, overnight incubation at 37° C., kynurenine absorbance at 480 nm
T1 construct: expressed in transfected cells; host or cells: murine mastocytoma P815 cells
Method: The assay was performed in 96-well flat bottom plates seeded with murine mastocytoma P815 cells overexpressing hTDO2 (prepared as described in Pilotte et al., PNAS, 2012, 109(7), 2497-2502), at a concentration of 5×10^4 cells/well in a final volume of 200 μL. To determine TDO or IDO activity, the cells were incubated overnight at 37° C. at 5% CO2 in IMDM (Invitrogen) supplemented with 2% FBS and 2% penicillin/streptomycin in the presence of the compounds of the present invention, at different concentrations.
The plates were then centrifuged 5 min at 1000 rpm, and 100 μL of the supernatant were collected in a conical plate, 30 uL of TCA 30% were added and a further centrifugated at 3000×g for 10 minutes. 100 μL of the supernatant were collected in a flat bottomed plate and 100 μL of 2% (w/v) 4-(dimethylamino)-benzaldehyde in acetic acid and incubated for 5 min at room temperature. Kynurenine concentrations were determined by measuring the absorbance at 480 nm. A standard curve was made with pure kynurenine. The TDO activity was measured as described above using ten serial concentrations of the compounds of the present invention. Data were fitted using the Prism software (GraphPad Software, Inc.).

[2] = biological target: T2, human recombinant TDO2 enzyme (Homo sapiens, UniProt P48775); assay: Assay for TDO2 enzymatic activity determination; type: biochemical; settings: human recombinant TDO2, L-Trp 1 mM, room temperature one hour, kynurenine absorbance at 480 nm
T2 construct: made in house
Method: To measure the TDO2 activity, the reaction mixture contained (final concentrations) potassium phosphate buffer (50 mM, pH 7.5), ascorbic acid (0.25 M), methylene blue (0.125 μM), catalase (40 units/mL, from bovine liver, Sigma), and human recombinant TDO2 enzyme (prepared as described in Dolusic et al. J. Med. Chem.; 2011, 54, 5320-5334; 0.9 μg) without or with the compounds of the present invention embodiments at the indicated concentrations (total volume 112.5 μL). The reaction was initiated by the addition of 37.5 μL of L-Trp (final concentration 1 mM) at room temperature. The reaction was conducted at room temperature during one hour and stopped by the addition of 30 μL of 30% (w/v) trichloroacetic acid.
To convert N-formylkynurenine into kynurenine, the reaction mixture was incubated at 65° C. for 30 min. Then 150 μL of the reaction mixture was mixed with 120 μL, of 2.5% (w/v) 4-(dimethylamino)-benzaldehyde in acetic acid and incubated for 5 min at room temperature. Kynurenine concentrations were determined by measuring the absorbance at 480 nm. A standard curve was made with pure kynurenine. The TDO activity was measured as described above using ten serial concentrations of certain embodiments of the compounds of the present invention. Data were fitted using the Prism software (GraphPad Software, Inc.).

T2 sequence (P48775 whole entry): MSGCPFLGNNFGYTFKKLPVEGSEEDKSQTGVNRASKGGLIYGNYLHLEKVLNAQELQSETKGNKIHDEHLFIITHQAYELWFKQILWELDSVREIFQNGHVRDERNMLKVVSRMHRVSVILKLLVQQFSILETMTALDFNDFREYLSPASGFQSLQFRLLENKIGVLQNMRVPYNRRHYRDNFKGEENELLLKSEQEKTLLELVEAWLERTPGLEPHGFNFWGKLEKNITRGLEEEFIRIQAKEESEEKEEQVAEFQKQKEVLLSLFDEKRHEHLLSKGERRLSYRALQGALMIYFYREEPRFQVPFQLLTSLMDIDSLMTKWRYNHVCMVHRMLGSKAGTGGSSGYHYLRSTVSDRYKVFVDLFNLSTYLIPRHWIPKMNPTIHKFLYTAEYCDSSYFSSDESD
T1 sequence (P48775 whole entry): as above

CNC(=O)Cn1cc(-c2c[nH]c3cc(F)ccc23)cn1 [Example 39, 2-(4-(6-fluoro-1H-indol-3-yl)-1H-pyrazol-1-yl)-N-methylacetamide]
IC50 [1]: 1 to 10 µM | IC50 [2]: 1 to 10 µM

O=C(O)CCn1cc(-c2c[nH]c3cc(F)c(F)cc23)cn1 [Example 17, 3-(4-(5,6-difluoro-1H-indol-3-yl)-1H-pyrazol-1-yl)propanoic acid]
IC50 [2]: 10 to 100 µM

Fc1ccc2c(-c3cnn(CC4CNC4)c3)c[nH]c2c1 [Example 6, 3-(1-(azetidin-3-ylmethyl)-1H-pyrazol-4-yl)-6-fluoro-1H-indole]
IC50 [1]: < 1 µM | IC50 [2]: < 1 µM

COCCC(=O)N1CCC(n2cc(-c3c[nH]c4cc(F)ccc34)cn2)CC1 [Example 81, 1-(4-(4-(6-fluoro-1H-indol-3-yl)-1H-pyrazol-1-yl)piperidin-1-yl)-3-methoxypropan-1-one]
IC50 [2]: 1 to 10 µM

Fc1ccc2c(-c3cnn(-c4cccnc4)c3)c[nH]c2c1 [Example 112, 6-fluoro-3-(1-(pyridin-3-yl)-1H-pyrazol-4-yl)-1H-indole]
IC50 [1]: < 1 µM | IC50 [2]: < 1 µM

NC(=O)N1CC(n2cc(-c3c[nH]c4cc(F)ccc34)cn2)C1 [Example 4, 3-(4-(6-fluoro-1H-indol-3-yl)-1H-pyrazol-1-yl)azetidine-1-carboxamide]
IC50 [2]: 1 to 10 µM

Fc1ccc2c(-c3cnn(CCN4CCOCC4)c3)c[nH]c2c1 [Example 20, 4-(2-(4-(6-fluoro-1H-indol-3-yl)-1H-pyrazol-1-yl)ethyl)morpholine]
IC50 [1]: 1 to 10 µM | IC50 [2]: 1 to 10 µM

Fc1ccc2c(-c3cnn(-c4ccc(Cl)nn4)c3)c[nH]c2c1 [Example 108, 3-(1-(6-chloropyridazin-3-yl)-1H-pyrazol-4-yl)-6-fluoro-1H-indole]
IC50 [2]: 10 to 100 µM

CNC(=O)[C@H]1C[C@H](n2cc(-c3c[nH]c4cc(F)ccc34)cn2)C1 [Example 64, (1R,3R)-3-(4-(6-fluoro-1H-indol-3-yl)-1H-pyrazol-1-yl)-N-methylcyclobutanecarboxamide]
IC50 [2]: 1 to 10 µM

FC(F)(F)c1ccc2c(-c3cn[nH]c3)c[nH]c2c1 [Example 72, 3-(1H-pyrazol-4-yl)-6-(trifluoromethyl)-1H-indole]
IC50 [2]: 10 to 100 µM

O[C@H]1CC[C@H](n2cc(-c3c[nH]c4cc(F)ccc34)cn2)CC1 [Example 69, (1R,4R)-4-(4-(6-fluoro-1H-indol-3-yl)-1H-pyrazol-1-yl)cyclohexanol]
IC50 [1]: 1 to 10 µM | IC50 [2]: 1 to 10 µM

CS(=O)(=O)N1CCC(Cn2cc(-c3c[nH]c4cc(F)ccc34)cn2)CC1 [Example 54, 6-fluoro-3-(1-((1-(methylsulfonyl)piperidin-4-yl)methyl)-1H-pyrazol-4-yl)-1H-indole]
IC50 [1]: 1 to 10 µM | IC50 [2]: 1 to 10 µM

Fc1ccc2c(-c3cnn(CCN4CCCC4)c3)c[nH]c2c1 [Example 29, 6-fluoro-3-(1-(2-(pyrrolidin-1-yl)ethyl)-1H-pyrazol-4-yl)-1H-indole]
IC50 [1]: < 1 µM | IC50 [2]: 1 to 10 µM

O=C1NCCN1CCn1cc(-c2c[nH]c3cc(F)ccc23)cn1 [Example 18, 1-(2-(4-(6-fluoro-1H-indol-3-yl)-1H-pyrazol-1-yl)ethyl)imidazolidin-2-one]
IC50 [2]: 1 to 10 µM

NC(=O)Cn1cc(-c2c[nH]c3cc(F)ccc23)cn1 [Example 38, 2-(4-(6-fluoro-1H-indol-3-yl)-1H-pyrazol-1-yl)acetamide]
IC50 [1]: 1 to 10 µM | IC50 [2]: 1 to 10 µM

Cc1c(-c2c[nH]c3cc(F)ccc23)cnn1C (single isomer, unassigned) [Example 74, 3-(1,5-dimethyl-1H-pyrazol-4-yl)-6-fluoro-1H-indole]
IC50 [1]: < 1 µM | IC50 [2]: 1 to 10 µM

NC(=O)[C@H]1C[C@H](n2cc(-c3c[nH]c4cc(F)ccc34)cn2)C1 [Example 62, (1R,3R)-3-(4-(6-fluoro-1H-indol-3-yl)-1H-pyrazol-1-yl)cyclobutanecarboxamide]
IC50 [1]: 1 to 10 µM | IC50 [2]: 1 to 10 µM

COC(=O)Cn1cc(-c2c[nH]c3cc(F)ccc23)cn1 [Example 42, methyl 2-(4-(6-fluoro-1H-indol-3-yl)-1H-pyrazol-1-yl)acetate]
IC50 [2]: 1 to 10 µM

CNC(=O)[C@H]1C[C@@H](n2cc(-c3c[nH]c4cc(F)ccc34)cn2)C1 [Example 63, (1S,3S)-3-(4-(6-fluoro-1H-indol-3-yl)-1H-pyrazol-1-yl)-N-methylcyclobutanecarboxamide]
IC50 [2]: 1 to 10 µM

OCCN1CCC(n2cc(-c3c[nH]c4cc(F)ccc34)cn2)CC1 [Example 79, 2-(4-(4-(6-fluoro-1H-indol-3-yl)-1H-pyrazol-1-yl)piperidin-1-yl)ethanol]
IC50 [2]: 1 to 10 µM

CNC(=O)NCCn1cc(-c2c[nH]c3cc(F)ccc23)cn1 [Example 23, 1-(2-(4-(6-fluoro-1H-indol-3-yl)-1H-pyrazol-1-yl)ethyl)-3-methylurea]
IC50 [2]: 1 to 10 µM

O=C(O)CN1CCC(Cn2cc(-c3c[nH]c4cc(F)ccc34)cn2)CC1 [Example 49, 2-(4-((4-(6-fluoro-1H-indol-3-yl)-1H-pyrazol-1-yl)methyl)piperidin-1-yl)acetic acid]
IC50 [2]: 1 to 10 µM

O=C1CCCN1CCn1cc(-c2c[nH]c3cc(F)ccc23)cn1 [Example 30, 1-(2-(4-(6-fluoro-1H-indol-3-yl)-1H-pyrazol-1-yl)ethyl)pyrrolidin-2-one]
IC50 [2]: 1 to 10 µM

CC(=O)N1CC(n2cc(-c3c[nH]c4cc(F)ccc34)cn2)C1 [Example 3, 1-(3-(4-(6-fluoro-1H-indol-3-yl)-1H-pyrazol-1-yl)azetidin-1-yl)ethanone]
IC50 [2]: 1 to 10 µM

Fc1ccc2c(-c3cnn(CC4CCN(CC(F)(F)F)CC4)c3)c[nH]c2c1 [Example 45, 6-fluoro-3-(1-((1-(2,2,2-trifluoroethyl)piperidin-4-yl)methyl)-1H-pyrazol-4-yl)-1H-indole]
IC50 [2]: 1 to 10 µM

CC(=O)N1CCN(CCn2cc(-c3c[nH]c4cc(F)ccc34)cn2)CC1 [Example 28, 1-(4-(2-(4-(6-fluoro-1H-indol-3-yl)-1H-pyrazol-1-yl)ethyl)piperazin-1-yl)ethanone]
IC50 [2]: 10 to 100 µM

O=C(O)CCC(=O)N1CCC(Cn2cc(-c3c[nH]c4cc(F)ccc34)cn2)CC1 [Example 50, 4-(4-((4-(6-fluoro-1H-indol-3-yl)-1H-pyrazol-1-yl)methyl)piperidin-1-yl)-4-oxobutanoic acid]
IC50 [2]: 10 to 100 µM

CN(C)C(=O)CCn1cc(-c2c[nH]c3cc(F)ccc23)cn1 [Example 15, 3-(4-(6-fluoro-1H-indol-3-yl)-1H-pyrazol-1-yl)-N,N-dimethylpropanamide]
IC50 [2]: 1 to 10 µM

O=C(O)[C@H]1C[C@@H](n2cc(-c3c[nH]c4cc(F)ccc34)cn2)C1 [Example 65, (1S,3S)-3-(4-(6-fluoro-1H-indol-3-yl)-1H-pyrazol-1-yl)cyclobutanecarboxylic acid]
IC50 [2]: 10 to 100 µM

O=C(O)CCn1cc(-c2c[nH]c3cc(F)ccc23)cn1 [Example 16, 3-(4-(6-fluoro-1H-indol-3-yl)-1H-pyrazol-1-yl)propanoic acid]
IC50 [2]: 1 to 10 µM

O=C(O)[C@H]1C[C@H](n2cc(-c3c[nH]c4cc(F)ccc34)cn2)C1 [Example 66, (1R,3R)-3-(4-(6-fluoro-1H-indol-3-yl)-1H-pyrazol-1-yl)cyclobutanecarboxylic acid]
IC50 [2]: 10 to 100 µM

CNC(=O)CCn1cc(-c2c[nH]c3cc(F)ccc23)cn1 [Example 14, 3-(4-(6-fluoro-1H-indol-3-yl)-1H-pyrazol-1-yl)-N-methylpropanamide]
IC50 [2]: 1 to 10 µM

CCC(=O)N1CCC(n2cc(-c3c[nH]c4cc(F)ccc34)cn2)CC1 [Example 82, 1-(4-(4-(6-fluoro-1H-indol-3-yl)-1H-pyrazol-1-yl)piperidin-1-yl)propan-1-one]
IC50 [2]: 1 to 10 µM

O=C(O)Cn1cc(-c2c[nH]c3cc(F)ccc23)cn1 [Example 41, 2-(4-(6-fluoro-1H-indol-3-yl)-1H-pyrazol-1-yl)acetic acid]
IC50 [2]: 10 to 100 µM

CNC(=O)N1CC(n2cc(-c3c[nH]c4cc(F)ccc34)cn2)C1 [Example 5, 3-(4-(6-fluoro-1H-indol-3-yl)-1H-pyrazol-1-yl)-N-methylazetidine-1-carboxamide]
IC50 [2]: 1 to 10 µM

CN(C)CCNC(=O)CCn1cc(-c2c[nH]c3cc(F)ccc23)cn1 [Example 13, N-(2-(dimethylamino)ethyl)-3-(4-(6-fluoro-1H-indol-3-yl)-1H-pyrazol-1-yl)propanamide]
IC50 [2]: 1 to 10 µM
